The values below come from patent publication US20060233714A1, “Use of a volatile liquid at atmospheric pressure and ambient temperature for the production of pharmaceutical or biological compositions” (priority 2003, published 2006).

Data set [1] can be described thus: Vapor pressure at 25° C. and atmospheric pressure.
A short description of data set [2]: Evaporation time of the liquid brought into contact with living human hands. The class given is physicochemical. The following applies: liquid applied to living human hands/skin; averages; 1 ml or 2 ml. On the procedure: For an HFE having a vapor pressure at 25° C. and atmospheric pressure of 28,000 Pa (280 mbar), the evaporation time when 1 ml is brought into contact with living human hands was about 4 seconds; for an HFE having a vapor pressure at 25° C. and atmospheric pressure of 14,000 Pa (140 mbar), the evaporation time was 7 seconds; for an HFE having a vapor pressure at 25° C. and atmospheric pressure of 2100 Pa (21 mbar), the evaporation time was about 15 seconds; and for an HFE having a vapor pressure at 25° C. and atmospheric pressure of 69,800 Pa, the evaporation time was about 1 s.
The evaporation times indicated above are averages for 2 ml applied to the skin. They depend in particular on the temperature of the substrate to which they are applied and can vary between individuals, for application to the skin and mucosae, according to the body temperature and room temperature.

In the case of `COC(F)(F)C(F)(F)C(F)(F)F` [methoxyheptafluoropropane], the “vapor pressure at 25° C. and atmospheric pressure” value in data set [1] is 69,800 Pa. Besides, in data set [2], the “evaporation time on the hands” value is reported as “about 1 s”.
For methoxynonafluorobutane the same measures were 28,000 Pa and “about 4 s”.
Take ethoxynonafluorobutane: the “evaporation time on the hands” value in data set [2] is “about 7 s”.
